Test results: patent publication US20240000878A1 (priority 2022, published 2024)
≈ marks a conversion by molar mass, not a printed value. Where “and” joins values, the source holds several entries; their conditions need not be identical. Equal values may be shown once. Where a name gives a salt, the structure may show the parent alone.

What was measured:
Assay in all cases: microbe, parasite or virus in culture
Type in all cases: cell-based
[1] = tested on: Respiratory Syncytial Virus (RSV) strain A2; conditions: for LRV (log reduction value): average reduction of virus vs average virus control; for antiviral activity against RSV (in words): summary of Table 2
[2] = tested on: Influenza A/CA/07/09 (H1N1); conditions: for LRV (log reduction value): average reduction of virus vs average virus control
[3] = tested on: SARS-CoV-2 strain USA/PHC658/2021 (B.1.617.2; delta); conditions: for LRV (log reduction value): average reduction of virus vs average virus control

Which results are given for `CN(C)CCC(c1ccc(Cl)cc1)c1ccccn1` (centres unmarked) [Chlorpheniramine Maleate, reference compound]?
Log10 CCID50 virus per 0.2 mL ([1]; concentration 1 %): 1.50; LRV (log reduction value) ([1]; concentration 1 %, day 5): 2.99; LRV (log reduction value) ([2]; concentration 1 %, day 3): 6.02; Log10 CCID50 virus per 0.2 mL ([3]; concentration 1 %): 2.30 and 2.50; LRV (log reduction value) ([3]; concentration 1 %, day 6): 2.69

What does the source list for `OC[C@@H](O)[C@@H](O)CO` [Erythritol]?
LRV (log reduction value) ([1]; concentration 5 %, day 5): 1.84; LRV (log reduction value) ([2]; concentration 5 %, day 3): 3.17; antiviral activity against H1N1 (in words) ([2]; summary of Table 1): showed antiviral activity; LRV (log reduction value) ([3]; concentration 5 %, day 6): 3.29

How did the EC90 ([3]; Severe acute respiratory syndrome coronavirus 2, 144 h) turn out when `CCC(CC)COC(=O)[C@H](C)N[P@](=O)(OC[C@H]1O[C@@](C#N)(c2ccc3c(N)ncnn23)[C@H](O)[C@@H]1O)Oc1ccccc1` [Remdesivir] was run?
The EC90 was 0.12 µg/mL (≈ 0.199 µM).

And the “Log10 CCID50 virus per 0.2 mL” value ([3]; concentration 5 μg/ml)?
The value was 0.67.

And the SI ([3]; with the EC90, day 6)?
The SI was “SI >42”.

Which results are given for `NC(=O)c1ncn([C@@H]2O[C@H](CO)[C@@H](O)[C@H]2O)n1` [Ribavirin, reference compound]?
Log10 CCID50 virus per 0.2 mL ([1]; concentration 100 μg/ml): 1.30; EC90 ([1]; human respiratory syncytial virus, 120 h, 90% effective concentration (reduce virus yield by 1 log10), regression analysis, day 5): 4.6 µg/mL (≈ 18.8 µM); SI ([1]; with the EC90, day 5): SI >22; EC90 ([2]; Influenza A virus, H1N1, 72 h): 3.1 µg/mL (≈ 12.7 µM); Log10 CCID50 virus per 0.2 mL ([2]; concentration 100 μg/ml): 0.67; SI ([2]; with the EC90, day 3): SI >32

What does the source list for `OC[C@@H](O)[C@@H](O)[C@H](O)[C@@H](O)CO` [Sorbitol]?
Log10 CCID50 virus per 0.2 mL ([1]; concentration 5 %): 2.00; LRV (log reduction value) ([1]; concentration 5 %, day 5): 2.49; antiviral activity against RSV (in words) [1]: antiviral activity; LRV (log reduction value) ([2]; concentration 5 %, day 3): 1.47; Log10 CCID50 virus per 0.2 mL ([3]; concentration 5 %): 1.50 and 1.67; LRV (log reduction value) ([3]; concentration 5 %, day 6): 3.5

Which “LRV (log reduction value)” value ([1]; concentration 5 %, day 5) does the source give for `OC[C@@H](O)[C@H](O)[C@@H](O)CO` [Xylitol] here?
The value was 2.65.

What about the “antiviral activity against RSV (in words)” value [1] of the same compound?
Its value is “antiviral activity”.

What about the “Log10 CCID50 virus per 0.2 mL” value ([2]; concentration 5 %) of the same compound?
The value was 6.00.

What about the “LRV (log reduction value)” value ([2]; concentration 5 %, day 3) of the same compound?
Its value is 1.27.

And the “LRV (log reduction value)” value ([3]; concentration 5 %, day 6)?
Its value is 3.84.
